Results: publication PMC9374744, “Structural basis for receptor selectivity and inverse agonism in S1P5 receptors” (Nature Communications, 2022)
Values joined by “and” are separate entries in the source; they are usually repeats but may differ in a detail not shown here. Identical values can stand only once.

What was measured:
human S1P5 L292A mutant = human S1P5 L292A mutant (Homo sapiens, UniProt Q9H228, L292A); test: BRET-based cAMP Gi signaling assay, S1P5 L292A; conditions: inverse agonism
human S1P5 C43F mutant = human S1P5 C43F mutant (Homo sapiens, UniProt Q9H228, C43F); test: BRET-based cAMP Gi signaling assay, S1P5 C43F; conditions: inverse agonism
human S1P5 L318Q mutant = human S1P5 L318Q mutant (Homo sapiens, UniProt Q9H228, L318Q); test: BRET-based cAMP Gi signaling assay, S1P5 L318Q; conditions: inverse agonism
human S1P5 K24R mutant = human S1P5 K24R mutant (Homo sapiens, UniProt Q9H228, K24R); test: BRET-based cAMP Gi signaling assay, S1P5 K24R; conditions: for BRET ratio, Supplementary Figure 6b: replicate values, listed as ONO; for EC50: inverse agonism
human S1P5 K24A mutant = human S1P5 K24A mutant (Homo sapiens, UniProt Q9H228, K24A); test: BRET-based cAMP Gi signaling assay, S1P5 K24A; conditions: inverse agonism
human S1P5 Y89W mutant = human S1P5 Y89W mutant (Homo sapiens, UniProt Q9H228, Y89W); test: BRET-based cAMP Gi signaling assay, S1P5 Y89W; conditions: inverse agonism
human WT S1P5 receptor = human WT S1P5 receptor (Homo sapiens, UniProt Q9H228); test: BRET-based cAMP (EPAC biosensor) Gi signaling assay, WT S1P5; conditions: for BRET signal, raw replicate readings: WT, listed as ONO; for EC50: inverse agonism
human S1P5 N92A mutant = human S1P5 N92A mutant (Homo sapiens, UniProt Q9H228, N92A); test: BRET-based cAMP Gi signaling assay, S1P5 N92A; conditions: inverse agonism
human S1P5 R111Q mutant = human S1P5 R111Q mutant (Homo sapiens, UniProt Q9H228, R111Q); test: BRET-based cAMP Gi signaling assay, S1P5 R111Q; conditions: inverse agonism
[1] = Figure 2c source data, N/R = no response

human S1P5 Y89W mutant, sequence (Q9H228 whole entry Y89W): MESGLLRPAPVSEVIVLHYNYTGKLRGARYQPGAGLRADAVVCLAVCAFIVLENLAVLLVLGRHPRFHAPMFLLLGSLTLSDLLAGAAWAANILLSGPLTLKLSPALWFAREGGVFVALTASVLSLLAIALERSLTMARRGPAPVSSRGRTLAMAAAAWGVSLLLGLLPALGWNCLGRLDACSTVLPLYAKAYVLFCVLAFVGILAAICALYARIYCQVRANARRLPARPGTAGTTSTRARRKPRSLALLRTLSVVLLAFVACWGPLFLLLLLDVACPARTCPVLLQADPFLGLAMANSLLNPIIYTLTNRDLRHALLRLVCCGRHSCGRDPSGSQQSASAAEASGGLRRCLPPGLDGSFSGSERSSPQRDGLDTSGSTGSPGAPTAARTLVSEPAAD
human S1P5 L292A mutant, sequence (Q9H228 whole entry L292A): as the sequence (Q9H228 whole entry Y89W) above, with W89Y, L292A counted along it
human S1P5 L318Q mutant, sequence (Q9H228 whole entry L318Q): as the sequence (Q9H228 whole entry Y89W) above, with W89Y, L318Q counted along it
human S1P5 K24R mutant, sequence (Q9H228 whole entry K24R): as the sequence (Q9H228 whole entry Y89W) above, with K24R, W89Y counted along it
human S1P5 C43F mutant, sequence (Q9H228 whole entry C43F): as the sequence (Q9H228 whole entry Y89W) above, with C43F, W89Y counted along it
human WT S1P5 receptor, sequence (Q9H228 whole entry): as the sequence (Q9H228 whole entry Y89W) above, with W89Y counted along it
human S1P5 K24A mutant, sequence (Q9H228 whole entry K24A): as the sequence (Q9H228 whole entry Y89W) above, with K24A, W89Y counted along it
human S1P5 N92A mutant, sequence (Q9H228 whole entry N92A): as the sequence (Q9H228 whole entry Y89W) above, with W89Y, N92A counted along it
human S1P5 R111Q mutant, sequence (Q9H228 whole entry R111Q): as the sequence (Q9H228 whole entry Y89W) above, with W89Y, R111Q counted along it

Structure (SMILES): O=C(O)CCCN1CCc2cccc(OCCc3cccc4ccccc34)c2CC1 [ONO-5430608, 4-{6-[2-(1-naphthyl)ethoxy]-1,2,4,5-tetrahydro-3H-3-benzazepin-3-yl} butanoic acid]
- EC50 (human S1P5 L292A mutant; ONO, pEC50, M, L292A, mean ± SD, n=3): 21.9 nM
- EC50 (human S1P5 L292A mutant; ONO-5430608 pEC50, single experiments #1-#3, L292A, Figure 2c source data): 18.9 nM and 24 nM and 23.2 nM
- EC50 (human S1P5 C43F mutant; ONO, pEC50, M, C43F, mean ± SD, n=3): 4.47 nM
- EC50 (human S1P5 C43F mutant; ONO-5430608 pEC50, single experiments #1-#3, C43F, Figure 2c source data): 3.91 nM and 4.49 nM and 4.96 nM
- EC50 (human S1P5 L318Q mutant; ONO, pEC50, M, L318Q, mean ± SD, n=3): 22.4 nM
- EC50 (human S1P5 L318Q mutant; ONO-5430608 pEC50, single experiments #1-#3, L318Q, Figure 2c source data): 23 nM and 24.6 nM and 20.4 nM
- BRET ratio, Supplementary Figure 6b (human S1P5 K24R mutant; K24R, [ONO] 0.169351 nM): 0.7619 and 0.7605 and 0.7627 and 0.7643 and 0.765 and 0.7649 and 0.7612 and 0.7652 and 0.7621
- BRET ratio, Supplementary Figure 6b (human S1P5 K24R mutant; K24R, [ONO] 0.508053 nM): 0.7573 and 0.7607 and 0.7624 and 0.7643 and 0.7627 and 0.7635 and 0.7628 and 0.761 and 0.7617
- BRET ratio, Supplementary Figure 6b (human S1P5 K24R mutant; K24R, [ONO] 1.52416 nM): 0.7542 and 0.7548 and 0.7577 and 0.7568 (2×) and 0.7598 and 0.7585 and 0.7546 and 0.7523
- BRET ratio, Supplementary Figure 6b (human S1P5 K24R mutant; K24R, [ONO] 4.57247 nM): 0.7493 and 0.7475 and 0.7463 and 0.7487 and 0.7486 and 0.7479 and 0.7433 and 0.7453 and 0.7422
- BRET ratio, Supplementary Figure 6b (human S1P5 K24R mutant; K24R, [ONO] 13.7174 nM): 0.7349 and 0.7366 and 0.7407 and 0.7346 and 0.7367 and 0.7337 and 0.7316 and 0.7355 and 0.7298
- EC50 (human S1P5 K24R mutant; ONO, pEC50, M, K24R, mean ± SD, n=3): 4.57 nM
- EC50 (human S1P5 K24R mutant; ONO-5430608 pEC50, single experiments #1-#3, K24R, Figure 2c source data): 4.65 nM and 4.87 nM and 4.1 nM
- ONO-5430608 pEC50, single experiments #1-#3 (human S1P5 K24A mutant; [1]): N/R
- ONO, pEC50, M (human S1P5 K24A mutant; n=3, N/R = no response): N/R
- EC50 (human S1P5 Y89W mutant; ONO, pEC50, M, Y89W, mean ± SD, n=3): 2.95 nM
- EC50 (human S1P5 Y89W mutant; ONO-5430608 pEC50, single experiments #1-#3, Y89W, Figure 2c source data): 3.01 nM and 1.99 nM and 4.31 nM
- BRET signal, raw replicate readings (human WT S1P5 receptor; ONO 0.169351 nM, Suppl. Fig. 6f): 0.7609 and 0.7595 and 0.7587 and 0.7654 and 0.7615 and 0.7604 (2×) and 0.7628 and 0.7565
- BRET signal, raw replicate readings (human WT S1P5 receptor; ONO 0.508053 nM, Suppl. Fig. 6f): 0.753 and 0.7592 and 0.758 and 0.7626 and 0.762 and 0.759 and 0.761 and 0.7561 and 0.756
- BRET signal, raw replicate readings (human WT S1P5 receptor; ONO 1.52416 nM, Suppl. Fig. 6f): 0.748 and 0.7474 and 0.7478 (2×) and 0.7504 and 0.7525 and 0.7488 and 0.7446 and 0.7482
- BRET signal, raw replicate readings (human WT S1P5 receptor; ONO 4.57247 nM, Suppl. Fig. 6f): 0.7341 and 0.7354 and 0.7359 and 0.7386 and 0.7387 and 0.7347 and 0.7361 and 0.7362 and 0.7324
- BRET signal, raw replicate readings (human WT S1P5 receptor; ONO 13.7174 nM, Suppl. Fig. 6f): 0.7302 and 0.7285 and 0.7222 and 0.7325 and 0.7293 and 0.7332 and 0.7263 and 0.7276 and 0.7242
- BRET signal, raw replicate readings (human WT S1P5 receptor; ONO 41.1523 nM, Suppl. Fig. 6f): 0.7214 and 0.7273 and 0.7219 and 0.7256 and 0.7267 and 0.7266 and 0.7211 and 0.723 and 0.7239
- BRET signal, raw replicate readings (human WT S1P5 receptor; ONO 123.457 nM, Suppl. Fig. 6f): 0.7206
- BRET signal, raw replicate readings (human WT S1P5 receptor; ONO 370.37 nM, Suppl. Fig. 6f): 0.7228 and 0.7223 and 0.7157 and 0.7233 and 0.7238 and 0.7187 and 0.7181 (2×) and 0.7189
- BRET signal, raw replicate readings (human WT S1P5 receptor; ONO 1111.11 nM, Suppl. Fig. 6f): 0.7185 and 0.7195 and 0.7179 and 0.7229 and 0.7236 and 0.7207 and 0.7165 and 0.7204 and 0.7176
- BRET signal, raw replicate readings (human WT S1P5 receptor; ONO 3333.33 nM, Suppl. Fig. 6f): 0.719 and 0.7164 and 0.7226 and 0.7203 and 0.722 and 0.7221 and 0.7173 and 0.7187 and 0.715
- BRET signal, raw replicate readings (human WT S1P5 receptor; ONO 10000 nM, Suppl. Fig. 6f): 0.7216 and 0.7166 and 0.7165 and 0.7146 and 0.719 and 0.7226 and 0.7176 and 0.7153 and 0.7185
- BRET signal, raw replicate readings (human WT S1P5 receptor; ONO 10000 nM, Suppl. Fig. 6d): 0.7216 and 0.7166 and 0.7165 and 0.7146 and 0.719 and 0.7226 and 0.7176 and 0.7153 and 0.7185
- EC50 (human WT S1P5 receptor; ONO, pEC50, M, WT S1P5, mean ± SD, n=3): 1.7 nM
- EC50 (human WT S1P5 receptor; ONO-5430608 pEC50, single experiments #1-#3, WT S1P5, Figure 2c source data): 1.35 nM and 2 nM and 1.8 nM
- mode of action on Gi-protein-mediated signaling (basal activity level) (human WT S1P5 receptor; WT S1P5, BRET-based cAMP sensor): inverse agonist
- ONO-5430608 pEC50, single experiments #1-#3 (human S1P5 N92A mutant; [1]): N/R
- ONO, pEC50, M (human S1P5 N92A mutant; n=3, N/R = no response): N/R
- ONO-5430608 pEC50, single experiments #1-#3 (human S1P5 R111Q mutant; [1]): N/R
- ONO, pEC50, M (human S1P5 R111Q mutant; n=3, N/R = no response): N/R
